# Source: patent US10550097B2, “Selective 11-beta-hydroxysteroid dehydrogenase type 1 inhibitors” (DSM IP ASSETS B.V., priority 2015, dated 2020)
# Experiments:
# 11β-HSD1 = 11β-HSD1 (Homo sapiens, UniProt P28845); assay: 11β-HSD1 enzyme activity assay in cell lysates of transfected HEK-293 cells (HHH7 clone); type: biochemical; parameters: expressed in transfected cells; host or cells: HEK-293 (HHH7 clone), used as cell lysate; conditions: 200 nM cortisone, 450 μM NADPH, 10 min
# Method: Stably transfected human embryonic kidney (HEK-293) cells expressing 11β-HSD1 and hexose-6-phosphate dehydrogenase (the so called HHH7 clone) were cultivated for 48 h in Dulbecco's modified Eagle medium (DMEM) containing 4.5 g/L glucose, 10% fetal bovine serum, 100 U/mL penicillin, 0.1 mg/mL streptomycin, 1×MEM nonessential amino acids, and 10 mM HEPES buffer, pH 7.4. The cells were then washed with phosphate-buffered saline, and centrifuged for 4 min at 150×g. After removal of the supernatants, cell pellets were snap frozen on dry ice and stored at −80° C. until further use.
# Cell lysates were incubated for 10 min at 37° C. in TS2 buffer (100 mM NaCl, 1 mM EGTA, 1 mM EDTA, 1 mM MgCl2, 250 mM sucrose, 20 mM Tris-HCl, pH 7.4) in a final volume of 22.2 μL containing either solvent (0.1% DMSO) or the inhibitor at the respective concentration as indicated in Table 4 (see below).
# The steroids were separated by TLC, using methanol-chloroform (1:9) as solvent, followed by scintillation counting and calculation of substrate concentration. Data were collected from four independent measurements (standard deviation<10%).
# [1] = system: Human skin from abdominal plastic surgery; assay: Ex vivo: total dermal collagen after cortisone and cortisone/inhibitor treatment; type: cell-based; conditions: day 6; for Dermal collagen: cortisone/inhibitor treatment, topical daily, untreated set to 100%
# Method: Human skin from abdominal plastic surgery was used. The skin samples were cut in pieces of ˜8×3 mm (ø×thickness) and cultured up to day 6 in an air-liquid interface in a perforated ring of stainless steel in contact with a culture medium (modified Williams' E medium), while renewing the culture medium on day 3. Six skin specimens were used for each test sample. Each test sample (4 μl) was applied topically on top of each piece after cleaning of the surface with a cotton pad, which was subsequently covered with a 6 ø mm delivery membrane, this procedure was repeated daily. After 6 days skin sections were stained with Picrosirius Red histochemical staining, that dyes collagen fibers in purple-red. The papillary dermis was selected for the analysis. The different colors of the pictures were separated by using a deconvolution matrix. After deconvolution only pink-reddish images are used. Within these images the evaluation of dermal collagen was performed by estimating both color intensity and distribution with IMAGE J (NIH) analysis software. Two slides of each skin sample were processed by image acquisition and related analysis (i.e. 12 images for each treatment).
# Sequence of 11β-HSD1 (P28845 whole entry): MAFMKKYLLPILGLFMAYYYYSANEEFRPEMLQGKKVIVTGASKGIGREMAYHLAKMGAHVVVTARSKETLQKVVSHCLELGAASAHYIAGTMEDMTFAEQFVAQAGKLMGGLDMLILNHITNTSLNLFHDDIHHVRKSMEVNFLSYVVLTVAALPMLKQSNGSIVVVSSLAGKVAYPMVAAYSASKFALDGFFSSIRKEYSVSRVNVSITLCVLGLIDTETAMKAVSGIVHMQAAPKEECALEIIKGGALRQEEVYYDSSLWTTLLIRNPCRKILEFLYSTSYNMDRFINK
smiles,measurement,setting,value
"Cc1ccc(-c2cccc(C(=O)N3CC(C)OC(C)C3)c2)cc1 (centres unmarked) [III-c, (2,6-dimethylmorpholino) (4′-methyl-[1,1′-biphenyl]-3-yl)methanone]",11β-HSD1 Remaining activity [% of control],11β-HSD1; inhibitor 100 nM,60 % of control
same,11β-HSD1 Remaining activity [% of control],11β-HSD1; inhibitor 1 μM,3 % of control
"Cc1ccc(-c2cccc(C(=O)N3CCCCCC3)c2)cn1 [IV-e, azepan-1-yl(3-(6-methylpyridin-3-yl)phenyl)methanone]",Dermal collagen,[1]; 10 μM in DMSO,103%
same,Increase versus cortisone (#2),[1]; 10 μM in DMSO,+34%
same,Dermal collagen,[1]; 100 μM in DMSO,101%
same,Increase versus cortisone (#2),[1]; 100 μM in DMSO,+31%
same,Dermal collagen,[1]; 200 μM in DMSO,96%
same,Increase versus cortisone (#2),[1]; 200 μM in DMSO,+25%
same,11β-HSD1 Remaining activity [% of control],11β-HSD1; inhibitor 100 nM,31 % of control
"Cc1ccc(-c2cccc(C(=O)N3CCC(C)CC3)c2)cc1 [II-f, (4′-methyl-[1,1′-biphenyl]-3-yl)(4-methylpiperidin-1-yl)methanone]",11β-HSD1 Remaining activity [% of control],11β-HSD1; inhibitor 1 μM,2 % of control
"Cc1ccc(-c2cccc(C(=O)N3CCC(C)CC3)c2)cc1F [II-d, (3′-fluoro-4′-methyl-[1,1′-biphenyl]-3-yl)(4-methylpiperidin-1-yl)methanone]",11β-HSD1 Remaining activity [% of control],11β-HSD1; inhibitor 100 nM,45 % of control
